Experimental data taken from ChEMBL document CHEMBL1201862, “PubChem BioAssay data set” (2004).
Active and inactive are the calls of the source.

Legend:
Format in all cases: functional
[1] = molecular target: T1, DNA repair and recombination protein RAD54-like (Homo sapiens, UniProt Q92698); assay: inhibitors of human RAD54 branch migration, confirmation, biochemical, fluorescence, cherry-picked samples, dose series (AID 651657)
T1 sequence (Q92698 whole entry): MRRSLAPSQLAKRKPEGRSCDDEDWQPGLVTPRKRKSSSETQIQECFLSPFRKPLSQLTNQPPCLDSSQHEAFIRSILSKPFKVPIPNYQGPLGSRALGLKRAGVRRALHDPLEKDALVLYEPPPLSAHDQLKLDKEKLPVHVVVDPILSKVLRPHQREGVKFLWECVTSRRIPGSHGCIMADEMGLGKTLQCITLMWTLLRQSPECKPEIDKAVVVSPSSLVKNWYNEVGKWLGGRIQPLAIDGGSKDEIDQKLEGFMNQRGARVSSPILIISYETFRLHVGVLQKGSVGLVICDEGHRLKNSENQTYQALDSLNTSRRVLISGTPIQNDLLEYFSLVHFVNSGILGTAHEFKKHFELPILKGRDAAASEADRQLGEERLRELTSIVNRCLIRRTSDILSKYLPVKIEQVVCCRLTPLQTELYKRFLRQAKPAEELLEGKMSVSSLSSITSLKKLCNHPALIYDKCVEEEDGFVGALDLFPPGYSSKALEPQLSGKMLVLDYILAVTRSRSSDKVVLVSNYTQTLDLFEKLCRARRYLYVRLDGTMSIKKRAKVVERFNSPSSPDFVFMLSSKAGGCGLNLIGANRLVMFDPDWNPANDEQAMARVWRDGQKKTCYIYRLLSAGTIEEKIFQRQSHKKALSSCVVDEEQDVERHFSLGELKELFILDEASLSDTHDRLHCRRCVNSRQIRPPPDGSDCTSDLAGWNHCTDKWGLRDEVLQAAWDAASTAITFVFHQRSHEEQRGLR

[2] = molecular target: T2, Cysteine protease ATG4B (Homo sapiens, UniProt Q9Y4P1);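 note: Fluorescence-based dose-response confirmation assay measuring inhibition of ATG4B activity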
T2 sequence (Q9Y4P1 whole entry): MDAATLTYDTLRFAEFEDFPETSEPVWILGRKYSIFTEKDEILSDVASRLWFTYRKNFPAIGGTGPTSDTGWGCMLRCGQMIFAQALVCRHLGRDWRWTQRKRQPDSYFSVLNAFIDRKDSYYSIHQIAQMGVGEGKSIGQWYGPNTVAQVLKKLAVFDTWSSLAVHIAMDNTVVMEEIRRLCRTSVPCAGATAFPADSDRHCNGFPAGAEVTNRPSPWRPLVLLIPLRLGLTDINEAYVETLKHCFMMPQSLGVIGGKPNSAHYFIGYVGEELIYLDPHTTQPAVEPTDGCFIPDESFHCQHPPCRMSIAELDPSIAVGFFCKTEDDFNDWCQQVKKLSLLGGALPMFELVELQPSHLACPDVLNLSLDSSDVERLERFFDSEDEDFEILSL

[3] = molecular target: Phospholipase A2 (Homo sapiens, UniProt P04054);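 note: confirmatory dose-response counterscreen on phospholipase A2, testing hits that came from an ultra-high-throughput screen for ATG4B inhibitors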
Sequence of Phospholipase A2 (P04054 whole entry): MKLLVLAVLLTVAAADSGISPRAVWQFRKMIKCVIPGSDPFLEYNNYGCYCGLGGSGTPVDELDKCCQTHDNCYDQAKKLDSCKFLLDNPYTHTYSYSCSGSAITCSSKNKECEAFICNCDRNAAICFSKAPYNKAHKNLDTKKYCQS

[4] = molecular target: T3, High affinity choline transporter 1 (Homo sapiens, UniProt Q9GZV3); assay: CHT inhibitors, dose response, cell-based, 10-point CRC, membrane potential dye (AID 588401);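 note: membrane potential dye fluorescence of choline-evoked depolarization via CHT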
T3 sequence (Q9GZV3 whole entry): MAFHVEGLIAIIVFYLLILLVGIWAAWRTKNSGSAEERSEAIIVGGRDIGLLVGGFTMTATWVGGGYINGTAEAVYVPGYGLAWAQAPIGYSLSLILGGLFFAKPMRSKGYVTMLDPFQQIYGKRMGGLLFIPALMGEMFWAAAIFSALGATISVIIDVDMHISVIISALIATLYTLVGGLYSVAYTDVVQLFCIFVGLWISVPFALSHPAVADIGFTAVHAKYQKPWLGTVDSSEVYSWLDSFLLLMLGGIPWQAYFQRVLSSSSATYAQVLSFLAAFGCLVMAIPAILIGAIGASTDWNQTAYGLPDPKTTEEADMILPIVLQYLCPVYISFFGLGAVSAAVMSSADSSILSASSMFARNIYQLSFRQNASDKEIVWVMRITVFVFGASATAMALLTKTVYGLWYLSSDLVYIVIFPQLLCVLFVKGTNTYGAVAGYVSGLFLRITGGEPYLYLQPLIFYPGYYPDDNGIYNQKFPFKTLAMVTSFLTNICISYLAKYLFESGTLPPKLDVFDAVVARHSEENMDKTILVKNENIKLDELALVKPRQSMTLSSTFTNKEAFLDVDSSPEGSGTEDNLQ

[5] = molecular target: T3, High affinity choline transporter 1; assay: CHT inhibitors, dose response, cell-based, 5-point CRC, membrane potential dye (AID 504840)
[6] = A cytotoxicity screen of small molecule inhibitors of the PhoP region in Salmonella typhi identified in the primary screen. [Related pubchem assays: 1850, 1864, 1985 ]
[7] = system: HEK293; assay: inhibitors of LMP1-driven NF-kB reporter, dose response, cell-based, HEK293, luciferase, cherry-pick (AID 588343); conditions: Homo sapiens
[8] = molecular target: T4, C-C chemokine receptor type 6 (Homo sapiens, UniProt P51684); assay: CCR6 receptor antagonists, dose response, cell-based, luminescent beta-arrestin readout (AID 504728)
T4 sequence (P51684 whole entry): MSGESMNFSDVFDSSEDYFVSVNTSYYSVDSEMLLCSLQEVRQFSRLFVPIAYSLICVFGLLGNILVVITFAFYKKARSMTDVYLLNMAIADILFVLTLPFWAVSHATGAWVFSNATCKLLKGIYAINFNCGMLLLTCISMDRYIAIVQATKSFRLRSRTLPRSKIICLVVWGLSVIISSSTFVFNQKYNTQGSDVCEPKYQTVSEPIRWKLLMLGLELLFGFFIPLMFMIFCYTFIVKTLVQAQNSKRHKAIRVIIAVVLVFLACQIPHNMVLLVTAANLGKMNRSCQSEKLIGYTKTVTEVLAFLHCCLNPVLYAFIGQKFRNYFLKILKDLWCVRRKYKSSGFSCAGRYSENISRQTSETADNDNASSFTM

[9] = molecular target: Beta-galactosidase (Escherichia coli, UniProt Q8VNN2); assay: beta-galactosidase enzyme inhibitors and activators, dose response, artefact control for CCR6 antagonist project, biochemical, E. coli enzyme, set 3 (AID 504712)
Sequence of Beta-galactosidase (Q8VNN2 whole entry): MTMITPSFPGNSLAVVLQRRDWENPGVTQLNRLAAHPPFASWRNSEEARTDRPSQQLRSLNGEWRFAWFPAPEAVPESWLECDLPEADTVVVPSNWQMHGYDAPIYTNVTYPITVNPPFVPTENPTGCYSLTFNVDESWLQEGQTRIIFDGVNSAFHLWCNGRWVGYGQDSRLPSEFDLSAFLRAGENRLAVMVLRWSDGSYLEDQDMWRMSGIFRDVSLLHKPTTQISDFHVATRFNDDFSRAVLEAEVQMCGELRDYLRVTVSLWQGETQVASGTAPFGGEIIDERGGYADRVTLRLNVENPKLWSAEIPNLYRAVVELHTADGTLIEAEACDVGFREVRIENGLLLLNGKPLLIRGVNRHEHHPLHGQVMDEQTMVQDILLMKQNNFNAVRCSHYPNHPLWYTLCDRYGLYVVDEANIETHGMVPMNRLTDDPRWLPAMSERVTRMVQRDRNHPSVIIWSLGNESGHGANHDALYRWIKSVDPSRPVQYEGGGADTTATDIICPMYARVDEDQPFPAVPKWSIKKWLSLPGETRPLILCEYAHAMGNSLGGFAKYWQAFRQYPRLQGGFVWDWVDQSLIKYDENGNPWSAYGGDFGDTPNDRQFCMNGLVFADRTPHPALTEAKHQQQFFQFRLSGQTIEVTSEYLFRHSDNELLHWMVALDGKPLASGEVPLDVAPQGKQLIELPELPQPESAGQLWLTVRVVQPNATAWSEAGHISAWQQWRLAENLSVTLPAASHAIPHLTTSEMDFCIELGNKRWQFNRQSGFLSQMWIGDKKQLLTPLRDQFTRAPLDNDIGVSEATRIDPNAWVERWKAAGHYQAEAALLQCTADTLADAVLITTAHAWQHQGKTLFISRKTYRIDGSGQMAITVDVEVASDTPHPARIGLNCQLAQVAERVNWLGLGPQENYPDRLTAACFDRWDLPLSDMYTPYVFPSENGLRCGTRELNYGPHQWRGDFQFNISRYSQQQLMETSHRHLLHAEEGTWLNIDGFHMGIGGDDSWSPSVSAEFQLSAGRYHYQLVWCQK

[10] = molecular target: Melanocortin receptor 4 (Homo sapiens, UniProt P32245); assay: MC4R antagonist potency on cAMP, dose response, cell-based, TR-FRET, biased antagonists (AID 602298);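 note: antagonist potency against agonist-stimulated cAMP production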
Sequence of Melanocortin receptor 4 (P32245 whole entry): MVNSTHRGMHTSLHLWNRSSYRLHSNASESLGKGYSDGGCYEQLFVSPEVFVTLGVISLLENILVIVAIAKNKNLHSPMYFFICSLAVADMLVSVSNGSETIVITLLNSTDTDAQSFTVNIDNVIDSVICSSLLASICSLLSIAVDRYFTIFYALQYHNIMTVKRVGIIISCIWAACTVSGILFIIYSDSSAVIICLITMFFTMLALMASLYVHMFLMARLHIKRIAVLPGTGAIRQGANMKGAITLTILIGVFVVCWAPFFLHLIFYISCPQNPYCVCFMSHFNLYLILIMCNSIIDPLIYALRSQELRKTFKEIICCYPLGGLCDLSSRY

[11] = nonselective inhibitors of cellular cAMP signaling, dose response, counter-screen for MC4R biased antagonist project, cell-based, TR-FRET cAMP detection (AID 602305);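 note: U2OS cells stimulated with forskolin near its EC80 as the cAMP inducer; potency is for inhibition of forskolin-stimulated cAMP signaling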
[12] = molecular target: T5, Hexokinase HKDC1 (Homo sapiens, UniProt Q2TB90); assay: HKDC1 hexokinase inhibitors, dose response, biochemical, W721R variant (AID 504729)
T5 sequence (Q2TB90 whole entry): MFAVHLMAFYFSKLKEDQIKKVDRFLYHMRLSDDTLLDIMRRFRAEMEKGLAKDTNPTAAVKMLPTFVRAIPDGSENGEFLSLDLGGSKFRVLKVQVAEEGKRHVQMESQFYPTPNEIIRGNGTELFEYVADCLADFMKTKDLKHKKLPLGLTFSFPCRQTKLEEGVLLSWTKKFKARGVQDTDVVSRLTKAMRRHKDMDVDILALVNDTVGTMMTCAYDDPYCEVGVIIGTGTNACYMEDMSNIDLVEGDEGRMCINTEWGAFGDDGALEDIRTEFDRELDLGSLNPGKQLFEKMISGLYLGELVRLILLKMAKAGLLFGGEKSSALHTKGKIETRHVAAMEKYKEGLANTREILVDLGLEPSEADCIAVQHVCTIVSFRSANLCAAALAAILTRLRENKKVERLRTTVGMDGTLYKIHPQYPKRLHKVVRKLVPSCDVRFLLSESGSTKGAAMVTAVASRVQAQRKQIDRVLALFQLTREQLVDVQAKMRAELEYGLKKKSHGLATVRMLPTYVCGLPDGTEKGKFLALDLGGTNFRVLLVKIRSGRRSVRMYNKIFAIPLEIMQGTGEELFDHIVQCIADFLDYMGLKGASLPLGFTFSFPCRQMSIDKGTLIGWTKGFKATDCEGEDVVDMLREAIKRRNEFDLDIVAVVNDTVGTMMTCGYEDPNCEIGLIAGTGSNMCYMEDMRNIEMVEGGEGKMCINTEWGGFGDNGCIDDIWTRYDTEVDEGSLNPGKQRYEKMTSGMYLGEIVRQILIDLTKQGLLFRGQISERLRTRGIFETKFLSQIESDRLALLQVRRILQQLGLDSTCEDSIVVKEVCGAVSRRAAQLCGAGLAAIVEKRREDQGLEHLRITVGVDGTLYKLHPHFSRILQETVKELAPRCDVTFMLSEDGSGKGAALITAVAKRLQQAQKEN

[13] = molecular target: Genome polyprotein (dengue virus type 2, UniProt P29990); assay: Dengue-2 NS5 methyltransferase inhibitors, primary screen, biochemical, confirmation dose response (AID 588689)
Sequence of Genome polyprotein (P29990 2492-3391 limits assumed): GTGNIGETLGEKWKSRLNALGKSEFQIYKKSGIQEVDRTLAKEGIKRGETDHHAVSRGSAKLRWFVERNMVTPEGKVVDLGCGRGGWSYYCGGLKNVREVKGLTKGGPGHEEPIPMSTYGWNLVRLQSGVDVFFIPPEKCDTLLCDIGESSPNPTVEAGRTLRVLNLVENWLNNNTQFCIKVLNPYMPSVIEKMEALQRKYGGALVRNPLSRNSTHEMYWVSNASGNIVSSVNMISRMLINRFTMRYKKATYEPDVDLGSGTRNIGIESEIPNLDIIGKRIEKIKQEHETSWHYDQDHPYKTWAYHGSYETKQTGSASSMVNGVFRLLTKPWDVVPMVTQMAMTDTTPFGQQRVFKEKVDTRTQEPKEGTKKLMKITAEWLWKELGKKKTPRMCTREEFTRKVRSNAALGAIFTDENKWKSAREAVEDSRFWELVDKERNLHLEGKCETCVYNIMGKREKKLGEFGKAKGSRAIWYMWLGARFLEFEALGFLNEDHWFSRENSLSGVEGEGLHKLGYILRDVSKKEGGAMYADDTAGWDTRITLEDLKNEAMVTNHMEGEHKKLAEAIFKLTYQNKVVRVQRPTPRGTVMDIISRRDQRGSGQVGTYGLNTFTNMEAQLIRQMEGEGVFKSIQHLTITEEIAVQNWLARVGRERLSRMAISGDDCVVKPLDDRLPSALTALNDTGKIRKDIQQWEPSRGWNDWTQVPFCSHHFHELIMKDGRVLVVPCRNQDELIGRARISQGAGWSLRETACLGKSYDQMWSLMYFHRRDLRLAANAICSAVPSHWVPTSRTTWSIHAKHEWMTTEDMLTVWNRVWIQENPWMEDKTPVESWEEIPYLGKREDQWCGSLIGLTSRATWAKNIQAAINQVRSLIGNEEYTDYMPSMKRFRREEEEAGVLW

[14] = molecular target: T6, Ubiquitin-conjugating enzyme E2 N (Homo sapiens, UniProt P61088);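 note: Dose-response confirmation in a TR-FRET assay detecting UBC13-driven polyubiquitin chain formation, inhibition measured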
T6 sequence (P61088 whole entry): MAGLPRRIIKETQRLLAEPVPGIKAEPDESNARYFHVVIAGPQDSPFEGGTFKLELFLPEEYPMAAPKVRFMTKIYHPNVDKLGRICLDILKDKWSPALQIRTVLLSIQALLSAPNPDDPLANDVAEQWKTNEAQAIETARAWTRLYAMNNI

[15] = molecular target: Ras and Rab interactor 1/Tyrosine-protein kinase ABL1 (Homo sapiens, UniProt P00519+Q13671);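 note: biochemical TR-FRET dose-response test measuring inhibition of binding between Rin1 and Abl proteins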
[16] = molecular target: Ribosomal protein S6 kinase beta-1 (Homo sapiens, UniProt P23443);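 note: measured as one member of a kinome-wide profiling panel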
Sequence of Ribosomal protein S6 kinase beta-1 (P23443 whole entry): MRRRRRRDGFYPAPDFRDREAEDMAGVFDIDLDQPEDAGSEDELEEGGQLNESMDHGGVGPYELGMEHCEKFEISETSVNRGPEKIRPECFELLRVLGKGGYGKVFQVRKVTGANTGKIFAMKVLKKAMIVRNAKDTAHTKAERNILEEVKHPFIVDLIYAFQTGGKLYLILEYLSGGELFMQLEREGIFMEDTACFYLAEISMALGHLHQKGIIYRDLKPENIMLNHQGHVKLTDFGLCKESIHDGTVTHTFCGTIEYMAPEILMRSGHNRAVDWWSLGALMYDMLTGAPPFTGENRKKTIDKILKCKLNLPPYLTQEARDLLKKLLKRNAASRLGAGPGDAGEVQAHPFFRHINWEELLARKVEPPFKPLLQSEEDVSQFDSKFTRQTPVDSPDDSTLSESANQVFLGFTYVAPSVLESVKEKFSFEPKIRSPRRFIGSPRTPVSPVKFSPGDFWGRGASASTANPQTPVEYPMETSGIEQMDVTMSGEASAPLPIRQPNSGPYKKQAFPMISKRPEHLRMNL

[17] = molecular target: Proto-oncogene tyrosine-protein kinase ROS (Homo sapiens, UniProt P08922);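 note: ROS1 tested as one member of a kinome-wide kinase panel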
[18] = molecular target: Cyclin-dependent kinase 9 (Homo sapiens, UniProt P50750);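 note: value from the CDK9 entry of a kinome-spanning kinase panel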
Sequence of Cyclin-dependent kinase 9 (P50750 whole entry): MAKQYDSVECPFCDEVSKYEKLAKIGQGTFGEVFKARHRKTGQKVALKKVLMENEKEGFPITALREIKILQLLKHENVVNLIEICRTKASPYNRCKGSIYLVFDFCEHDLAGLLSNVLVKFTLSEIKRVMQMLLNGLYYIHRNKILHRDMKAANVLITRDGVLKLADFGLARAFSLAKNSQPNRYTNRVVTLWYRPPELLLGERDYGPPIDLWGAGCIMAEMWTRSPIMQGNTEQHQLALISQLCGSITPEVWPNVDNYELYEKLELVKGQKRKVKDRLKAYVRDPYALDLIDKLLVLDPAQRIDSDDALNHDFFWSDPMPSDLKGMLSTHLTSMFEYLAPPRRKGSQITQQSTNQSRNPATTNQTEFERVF

[19] = molecular target: Rho-associated protein kinase 1 (Homo sapiens, UniProt Q13464);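 note: measured within a broad kinome-wide panel profiling many kinases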
Sequence of Rho-associated protein kinase 1 (Q13464 whole entry): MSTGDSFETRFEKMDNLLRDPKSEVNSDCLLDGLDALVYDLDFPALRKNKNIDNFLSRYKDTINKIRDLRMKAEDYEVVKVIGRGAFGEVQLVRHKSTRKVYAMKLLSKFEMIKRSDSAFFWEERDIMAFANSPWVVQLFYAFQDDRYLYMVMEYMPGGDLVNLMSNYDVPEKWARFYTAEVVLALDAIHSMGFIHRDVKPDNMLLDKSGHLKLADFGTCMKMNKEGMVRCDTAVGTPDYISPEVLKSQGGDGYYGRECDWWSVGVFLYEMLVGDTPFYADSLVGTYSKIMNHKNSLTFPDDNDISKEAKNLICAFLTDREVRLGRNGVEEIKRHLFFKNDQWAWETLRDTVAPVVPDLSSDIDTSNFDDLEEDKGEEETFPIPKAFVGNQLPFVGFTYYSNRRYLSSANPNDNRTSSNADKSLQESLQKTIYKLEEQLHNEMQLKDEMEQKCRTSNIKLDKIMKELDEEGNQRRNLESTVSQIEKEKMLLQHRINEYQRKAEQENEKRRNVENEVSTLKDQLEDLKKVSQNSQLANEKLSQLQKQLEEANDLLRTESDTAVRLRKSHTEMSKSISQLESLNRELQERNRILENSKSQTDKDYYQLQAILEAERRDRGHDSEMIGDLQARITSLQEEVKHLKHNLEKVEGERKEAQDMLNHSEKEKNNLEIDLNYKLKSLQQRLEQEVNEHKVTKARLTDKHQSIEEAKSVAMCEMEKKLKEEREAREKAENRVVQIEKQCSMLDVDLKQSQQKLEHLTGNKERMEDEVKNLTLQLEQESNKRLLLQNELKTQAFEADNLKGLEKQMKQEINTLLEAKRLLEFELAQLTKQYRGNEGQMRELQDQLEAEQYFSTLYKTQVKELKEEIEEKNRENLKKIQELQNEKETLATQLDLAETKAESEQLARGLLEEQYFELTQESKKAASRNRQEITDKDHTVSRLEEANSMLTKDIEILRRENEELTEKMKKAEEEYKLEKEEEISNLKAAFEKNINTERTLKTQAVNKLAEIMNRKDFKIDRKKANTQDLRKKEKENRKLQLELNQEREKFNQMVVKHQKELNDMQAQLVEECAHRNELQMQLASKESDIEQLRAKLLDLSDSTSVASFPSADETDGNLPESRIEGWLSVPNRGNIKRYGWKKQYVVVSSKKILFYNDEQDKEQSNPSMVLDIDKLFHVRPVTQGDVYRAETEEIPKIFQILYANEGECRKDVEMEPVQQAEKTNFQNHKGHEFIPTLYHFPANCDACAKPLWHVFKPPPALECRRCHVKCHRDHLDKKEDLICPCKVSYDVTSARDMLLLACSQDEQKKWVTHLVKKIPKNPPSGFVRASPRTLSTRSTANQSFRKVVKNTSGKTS

[20] = molecular target: Cyclin-dependent kinase 8 (Homo sapiens, UniProt P49336); assay: Navigating the Kinome. Panel member name: CDK8
[21] = molecular target: Vascular endothelial growth factor receptor 1 (Homo sapiens, UniProt P17948);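 note: measured within a kinome-wide profiling panel, FLT1 as the panel member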
[22] = molecular target: Dual specificity protein kinase CLK4 (Homo sapiens, UniProt Q9HAZ1)
[23] = molecular target: LIM domain kinase 1 (Homo sapiens, UniProt P53667); assay: Navigating the Kinome. Panel member name: LIMK1

**Q.** Which results are given for `Cc1ccc2nc3c(c(Nc4ccc5c(c4)OCCO5)c2c1)CCC3`?
**A.** AC50 [1]: 54.9 µM (active); IC50 [2]: 10.7 µM (active); IC50 [3]: 7.53 µM (active)

**Q.** For `O=C(O)CC1=C(Nc2ccccc2)C(=O)N(c2ccccc2)C1c1ccc(Br)cc1` (stereo unspecified), which IC50 [4] is on record?
**A.** 3.98 µM (active)

**Q.** And the IC50 [5]?
**A.** 5.55 µM (active)

**Q.** What does the source list for `Cc1nnc(SCc2cnc(-c3ccc(C(C)C)cc3)s2)n1C`?
**A.** IC50 [4]: 10 µM (active); EC50 [6]: > 50 µM (active); AC50 [7]: 4.43 µM (active); IC50 [5]: 1.28 µM (active)

**Q.** What does the source list for `O=C1/C(=C/c2ccc([N+](=O)[O-])cc2)C=C(c2ccccc2)N1c1ccc(O)cc1`?
**A.** IC50 [8]: > 66.6 µM (inactive); IC50 [9]: > 66.6 µM (inactive); IC50 [10]: > 64.6 µM (inactive); IC50 [11]: > 64.6 µM (inactive)

**Q.** For `COC1=C(Br)C(=O)c2ncccc2C1=O`, which IC50 [8] is on record?
**A.** > 66.6 µM (inactive)

**Q.** And the IC50 [9]?
**A.** > 66.6 µM (inactive)

**Q.** And the IC50 [12]?
**A.** 3.56 µM (active)

**Q.** And the IC50 [13]?
**A.** 3.41 µM (active)

**Q.** What about the IC50 [2] of the same compound?
**A.** 3.53 µM (active)

**Q.** And the IC50 [3]?
**A.** > 80 µM (inactive)

**Q.** Which results are given for `CC(C)[C@H](CN1CCC[C@H]1CN1C(N)=NC[C@@H]1Cc1ccccc1)N1C[C@@H](Cc2ccccc2)N(CCc2ccc(Cl)c(Cl)c2)C1=N`?
**A.** IC50 [14]: > 20 µM (inactive); IC50 [10]: 7.16 µM (active); IC50 [11]: > 64.6 µM (inactive)

**Q.** With `CN(CCc1ccccc1)C(=O)c1ccc(NC(=O)Cc2ccc(NC(=O)C3CCN(C(=O)C4CCCC4)CC3)cc2)cc1` as the compound, how does the IC50 [15] read?
**A.** 1.38 µM (active)

**Q.** What does the source list for `O=C(Cc1cccc2cnccc12)NCc1ccc(Br)cc1`?
**A.** Ki [16]: 6.31 µM (active); Ki [17]: 1.58 µM (active)

**Q.** For `Cc1ccccc1-c1cccc2nccn12`, which Ki [18] is on record?
**A.** 39.8 µM (active)

**Q.** What about the Ki [19] of the same compound?
**A.** 63.1 µM (active)

**Q.** What about the Ki [20] of the same compound?
**A.** 12.6 µM (active)

**Q.** And the Ki [21]?
**A.** 15.8 µM (active)

**Q.** And the Ki [22]?
**A.** 79.4 µM (active)

**Q.** And the Ki [23]?
**A.** 79.4 µM (active)
